Among the data in patent publication US6143715A, “Hepatitis C inhibitor peptide analogues” (priority 1998, dated 2000) are IC50 values, retold here.

Structures are written as SMILES. Starred links: 1 amine or outer side, 2 acyl side, 3 side chain; linkers in the order of their positions; H or OH if unused. Non-standard residues stand in square brackets, D forms with d. Residues, ends and D or L forms follow the SMILES beside them. ξ: configuration not given here. *: point of attachment. Tetrahydroisoquinolin(2-yl) = c1ccc2c(c1)CCN(*)C2; NH(1S-phenylpropyl) = CC[C@H](N*)c1ccccc1; NH(1S-phenylethyl) = C[C@H](N*)c1ccccc1; X11 = CCCN(N*)C(=O)[C@H](O)c1ccccc1; X20 = O=C(N(CC(F)(F)F)N[*:1])[*:2]; X1 = CCCC(N*)C(=O)C(F)(F)C(F)(F)F; X15 = CCCC(N[*:1])C(=O)C(=O)[*:2]; Hyp = O=C(O)[C@@H]1C[C@@H](O)CN1; NHPiperonyl = c1cc2c(cc1CN*)OCO2; azaNva = CCCN(N[*:1])C(=O)[*:2]; X10 = C=CCN(N[*:1])C(=O)[*:2]; X18 = CCCN(N*)C(=S)NCc1ccccc1; NMe(benzyl) = CN(Cc1ccccc1)*; Suc = O=C(CCC(=O)[*:2])[*:1]; X12 = C[C@H](N*)c1nnn[nH]1; Nva = CCC[C@H](N)C(=O)O; X14 = c1ccc2c(c1)CCN2*; X16 = CCCCN(N*)C(N)=O; NHBn = c1ccc(CN*)cc1; X13 = CCCN(N*)C(N)=O; X19 = CCCN(N*)C(C)=O; ξNva = CCCC(N)C(=O)O; Bn = c1ccc(C*)cc1

T1 sequence (P26663 1027-1206, other chains not shown): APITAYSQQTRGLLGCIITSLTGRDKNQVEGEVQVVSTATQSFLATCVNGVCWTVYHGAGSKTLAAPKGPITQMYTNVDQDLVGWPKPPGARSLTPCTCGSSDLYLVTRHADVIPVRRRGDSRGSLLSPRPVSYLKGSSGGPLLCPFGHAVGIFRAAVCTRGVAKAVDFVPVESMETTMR

The experiment addresses T1, HCV NS3 protease type 1b/NS4A cofactor peptide (Hepatitis C virus genotype 1b, UniProt P26663).
T1 construct: recombinant HCV NS3 protease (amino acid 1027 to 1206) was cloned; made in house; host or cells: E. coli BL21(DE3)pLysS
The experiment is described as follows: biochemical. Also noted: species or system hepatitis C virus (HCV) genotype 1b. From the text: a) Cloning, expression and purification of the recombinant HCV NS3 protease type lb
Serum from an HCV-infected patient was obtained through an external collaboration (Bernard Willems MD, Hopital St-Luc, Montreal, Canada and Dr. Donald Murphy, Laboratoire de Sante Publique du Quebec, Ste-Anne de Bellevue, Canada). An engineered full-length cDNA template of the HCV genome was constructed from DNA fragments obtained by reverse transcription-PCR (RT-PCR) of serum RNA and using specific primers selected on the basis of homology between other genotype lb strains. […] A DNA fragment encoding the polyprotein precursor (NS3/NS4A/NS4B/NS5A/NS5B) was generated by PCR and introduced into eucaryotic expression vectors.
The NS3 protease expression in E. coli BL21(DE3)pLysS was induced by incubation with 1 mM IPTG for 3 h at 22° C. […] The cells were resuspended in lysis buffer (3.0 mL/g) consisting of 25 mM sodium phosphate, pH 7.5, 10% glycerol (v/v), 1 mM EDTA, 0.01% NP-40 and stored at -80° C. Cells were thawed and homogenized following the addition of 5 mM DTT. Magnesium chloride and DNase were then added to the homogenate at final concentrations of 20 mM and 20 μg/mL respectively. After a 25 min incubation at 4° C., the homogenate was sonicated and centrifuged at 15000× g for 30 min at 4° C. The pH of the supernatant was then adjusted to 6.5 using a 1M sodium phosphate solution.
Briefly, the supernatant from the bacterial extract was loaded on a SP HiTrap column (Pharmacia) previously equilibrated at a flow rate of 2 mL/min in buffer A (50 mM sodium phosphate, pH 6.5, 10% glycerol, 1 mM EDTA, 5 mM DTT, 0.01% NP-40). The column was then washed with buffer A containing 0.15 M NaCl and the protease eluted by applying 10 column volumes of a linear 0.15 to 0.3 M NaCl gradient. NS3 protease-containing fractions were pooled and diluted to a final NaCl concentration of 0.1 M. The enzyme was further purified on a HiTrap Heparin column (Pharmacia) equilibrated in buffer B (25 mM sodium phosphate, pH 7.5, 10% glycerol, 5 mM DTT, 0.01% NP-40). The sample was loaded at a flow rate of 3 mL/min. The column was then washed with buffer B containing 0.15 M NaCl at a flow rate of 1.5 mL/min. Two step washes were performed in the presence of buffer B containing 0.3 or 1M NaCl. […] Finally, the NS3 protease-containing fractions were applied on a Superdex 75 HiLoad 16/60 column (Pharmacia) equilibrated in buffer B containing 0.3 M NaCl.
The enzyme was stored at -80° C. and was thawed on ice and diluted just prior to use.
Recombinant HCV NS3 Protease/NS4A Cofactor Peptide Radiometric Assay
The enzyme was stored at -80° C., thawed on ice and diluted just prior to use in the assay buffer containing the NS4A cofactor peptide.
The substrate used for the NS3 protease/[…] cofactor peptide radiometric assay, DDIVPC-SMSYTW, is cleaved between the cysteine and the serine residues by the enzyme. The sequence DDIVPC-SMSYTW corresponds to the NS5A/NS5B natural cleavage site in which the cysteine residue in […] has been substituted for a proline. […] (molar ratio enzyme: cofactor 1:100) in the absence or presence of inhibitors. The separation of substrate from products is performed by adding avidin-coated agarose beads to the assay mixture followed by filtration.
Assay buffer: 50 mM Tris HCl, pH 7.5, 30% (w/v) glycerol, 1 mg/mL BSA, 1 mM TCEP (TCEP added just prior to use from a 1 M stock solution in water)
Substrate: […], […] final concentration (from a 2 mM stock solution in DMSO stored at -20° C. to avoid oxidation).
Turning to `CCCN(NC(=O)[C@@H]1C[C@@H](OCc2ccccc2)CN1C(=O)[C@@H](NC(=O)[C@@H](NC(C)=O)C1CCCCC1)C(C)C)C(=O)C(=O)O` [Compound 227], the IC50 came to 39.5 µM. `CCCCN(NC(=O)[C@@H]1C[C@@H](OCc2ccccc2)CN1C(=O)[C@@H](NC(=O)[C@@H](NC(=O)[C@@H](CCC(=O)O)NC(=O)[C@H](CC(=O)O)NC(C)=O)[C@@H](C)CC)C(C)C)C(N)=O` [Compound 211] (Ac-D[dE]IV[Hyp](Bn)-X16) showed an IC50 of 47 µM.

As for `CCCN(NC(=O)[C@@H]1C[C@@H](OCc2ccccc2)CN1C(=O)[C@@H](NC(=O)[C@@H](NC(=O)[C@@H](CCC(=O)O)NC(=O)[C@H](CC(=O)O)NC(C)=O)[C@@H](C)CC)C(C)C)C(=O)N[C@@H](C)c1nnn[nH]1` [Compound 233] (Ac-D[dE]IV[Hyp](Bn)[azaNva]-X12), half-maximal inhibition (IC50) required 1.5 µM.

In the case of `CCCN(NC(=O)[C@@H]1C[C@@H](OCc2ccccc2)CN1C(=O)[C@@H](NC(=O)[C@@H](NC(=O)[C@@H](CCC(=O)O)NC(=O)[C@H](CC(=O)O)NC(C)=O)[C@@H](C)CC)C(C)C)C(N)=O` [Compound 209] (Ac-D[dE]IV[Hyp](Bn)-X13), the midpoint of inhibition, the IC50, lay at 20.5 µM. Turning to `CCCN(NC(=O)[C@@H]1C[C@@H](OCc2ccccc2)CN1C(=O)[C@@H](NC(=O)[C@@H](NC(=O)[C@@H](CCC(=O)O)NC(=O)[C@H](CC(=O)O)NC(C)=O)[C@@H](C)CC)C(C)C)C(=O)NCc1ccccc1` [Compound 203] (Ac-D[dE]IV[Hyp](Bn)[azaNva]-NHBn), the IC50 turned out to be 0.59 µM. Turning to `CCCC(NC(=O)[C@@H]1C[C@@H](OCc2ccccc2)CN1C(=O)[C@@H](NC(=O)[C@@H](NC(=O)[C@@H](CCC(=O)O)NC(=O)[C@H](CC(=O)O)NC(C)=O)[C@@H](C)CC)C(C)C)C(N)=O` (stereo partly shown) [Compound 105] (Ac-D[dE]IV[Hyp](Bn)[ξNva]-NH2), the IC50 was 54 µM. As to `CCCN(NC(=O)[C@@H]1C[C@@H](OCc2ccccc2)CN1C(=O)[C@@H](NC(=O)[C@@H](NC(=O)[C@@H](CCC(=O)O)NC(=O)[C@H](CC(=O)O)NC(C)=O)[C@@H](C)CC)C(C)C)C(=O)NCC(=O)O` [Compound 207] (Ac-D[dE]IV[Hyp](Bn)[azaNva]G-OH), the IC50 is 3.75 µM. `CCC[C@H](NC(=O)[C@@H]1C[C@@H](OCc2ccccc2)CN1C(=O)[C@@H](NC(=O)[C@@H](NC(=O)[C@@H](CCC(=O)O)NC(=O)[C@H](CC(=O)O)NC(C)=O)[C@@H](C)CC)C(C)C)C(=O)NCc1ccccc1` [Compound 107] (Ac-D[dE]IV[Hyp](Bn)[Nva]-NHBn): the IC50 was 3 µM. In turn, `CCCN(NC(=O)[C@@H]1C[C@@H](OCc2ccccc2)CN1C(=O)[C@@H](NC(=O)[C@@H](NC(=O)[C@@H](CCC(=O)O)NC(=O)[C@H](CC(=O)O)NC(C)=O)[C@@H](C)CC)C(C)C)C(=O)N[C@@H](CC)c1ccccc1` [Compound 214] (Ac-D[dE]IV[Hyp](Bn)[azaNva]-{NH(1S-phenylpropyl)}) returned an IC50 of 0.44 µM.

For `CCCN(NC(=O)[C@@H]1C[C@@H](OCc2ccccc2)CN1C(=O)[C@@H](NC(=O)[C@@H](NC(=O)[C@@H](CCC(=O)O)NC(=O)[C@H](CC(=O)O)NC(C)=O)[C@@H](C)CC)C(C)C)C(=O)NCc1ccc2c(c1)OCO2` [Compound 231] (Ac-D[dE]IV[Hyp](Bn)[azaNva]-NHPiperonyl), the IC50 was found to be 0.5 µM. `CCCN(NC(=O)[C@@H]1C[C@@H](OCc2ccccc2)CN1C(=O)[C@@H](NC(=O)[C@@H](NC(=O)[C@@H](CCC(=O)O)NC(=O)[C@H](CC(=O)O)NC(C)=O)[C@@H](C)CC)C(C)C)C(C)=O` [Compound 208] (Ac-D[dE]IV[Hyp](Bn)-X19) displayed an IC50 of 14.5 µM. `CCCN(NC(=O)[C@@H]1C[C@@H](OCc2ccccc2)CN1C(=O)[C@@H](NC(=O)[C@@H](NC(=O)[C@@H](CCC(=O)O)NC(=O)[C@H](CC(=O)O)NC(C)=O)[C@@H](C)CC)C(C)C)C(=O)[C@H](O)c1ccccc1` [Compound 216] (Ac-D[dE]IV[Hyp](Bn)-X11) displayed an IC50 of 9.6 µM. This IC50 is about 1.5-fold lower than that of the molecule before. Molecule `CCCN(NC(=O)[C@@H]1C[C@@H](OCc2ccccc2)CN1C(=O)[C@@H](NC(=O)[C@@H](NC(=O)[C@@H](CCC(=O)O)NC(=O)[C@H](CC(=O)O)NC(C)=O)[C@@H](C)CC)C(C)C)C(=O)N(C)Cc1ccccc1` [Compound 223] (Ac-D[dE]IV[Hyp](Bn)[azaNva]-{NMe(benzyl)}) showed an IC50 of 11 µM.

Molecule `CC[C@H](C)[C@H](NC(=O)[C@@H](CCC(=O)O)NC(=O)[C@H](CC(=O)O)NC(C)=O)C(=O)N[C@H](C(=O)N1C[C@H](OCc2ccccc2)C[C@H]1C(=O)NN(CC(F)(F)F)C(=O)N[C@@H](C)c1ccccc1)C(C)C` [Compound 228] (Ac-D[dE]IV[Hyp](Bn)[X20]-{NH(1S-phenylethyl)}) had an IC50 of 0.63 µM. Molecule `C=CCN(NC(=O)[C@@H]1C[C@@H](OCc2ccccc2)CN1C(=O)[C@@H](NC(=O)[C@@H](NC(=O)[C@@H](CCC(=O)O)NC(=O)[C@H](CC(=O)O)NC(C)=O)[C@@H](C)CC)C(C)C)C(=O)NCc1ccccc1` [Compound 234] (Ac-D[dE]IV[Hyp](Bn)[X10]-NHBn) displayed an IC50 of 3.7 µM. This IC50 lies about 5.9-fold higher than the previous one. With `CCCN(NC(=O)[C@@H]1C[C@@H](OCc2ccccc2)CN1C(=O)[C@@H](NC(=O)[C@@H](NC(=O)[C@@H](CCC(=O)O)NC(=O)[C@H](CC(=O)O)NC(C)=O)[C@@H](C)CC)C(C)C)C(=O)N1CCc2ccccc21` [Compound 226] (Ac-D[dE]IV[Hyp](Bn)[azaNva]-X14), the IC50 worked out at 6.3 µM. `CCCN(NC(=O)[C@@H]1CCCN1C(=O)[C@@H](NC(=O)[C@@H](NC(=O)[C@@H](CC(=O)O)NC(=O)CCC(=O)O)[C@@H](C)CC)C(C)C)C(=O)N[C@@H](C)c1ccccc1` [Compound 220] (Suc-[dD]IVP[azaNva]-{NH(1S-phenylethyl)}): the IC50 worked out at 6.9 µM. In the case of `CCCC(NC(=O)[C@@H]1C[C@@H](OCc2ccccc2)CN1C(=O)[C@@H](NC(=O)[C@@H](NC(C)=O)C1CCCCC1)C(C)C)C(=O)C(=O)NCc1ccncc1` (stereo partly shown) [Compound 116] it was 25 µM; in that of `CCCC(NC(=O)[C@@H]1C[C@@H](OCc2ccccc2)CN1C(=O)[C@@H](NC(=O)[C@@H](NC(=O)[C@@H](CCC(=O)O)NC(=O)[C@H](CC(=O)O)NC(C)=O)[C@@H](C)CC)C(C)C)C(=O)C(F)(F)C(F)(F)F` (stereo partly shown) [Compound 102] (Ac-D[dE]IV[Hyp](Bn)-X1), 0.21 µM. Take `CCCN(NC(=O)[C@@H]1C[C@@H](OCc2ccccc2)CN1C(=O)[C@@H](NC(=O)[C@@H](NC(=O)[C@@H](CCC(=O)O)NC(=O)[C@H](CC(=O)O)NC(C)=O)[C@@H](C)CC)C(C)C)C(=S)NCc1ccccc1` [Compound 224] (Ac-D[dE]IV[Hyp](Bn)-X18): the IC50 is 5 µM.

In turn, `CCCC(NC(=O)[C@@H]1C[C@@H](OCc2ccccc2)CN1C(=O)[C@@H](NC(=O)[C@@H](NC(=O)[C@@H](CCC(=O)O)NC(=O)[C@H](CC(=O)O)NC(C)=O)[C@@H](C)CC)C(C)C)C(=O)N1CCc2ccccc2C1` (stereo partly shown) [Compound 111] (Ac-D[dE]IV[Hyp](Bn)[ξNva]-{Tetrahydroisoquinolin(2-yl)}) yielded an IC50 of 20 µM. In the case of `CCCC(NC(=O)[C@@H]1C[C@@H](OCc2ccccc2)CN1C(=O)[C@@H](NC(=O)[C@@H](NC(=O)[C@@H](CCC(=O)O)NC(=O)[C@H](CC(=O)O)NC(C)=O)[C@@H](C)CC)C(C)C)C(=O)C(=O)NCc1ccccc1` (stereo partly shown) [Compound 103] (Ac-D[dE]IV[Hyp](Bn)[X15]-NHBn) it was 0.023 µM.

As a reminder, the IC50 is the concentration needed to halve the response being measured. Read a low IC50 as greater potency in that assay.
